Laboratory results taken from ChEMBL document CHEMBL5390201, “The Natural Alkaloid (-)-N-Hydroxyapiosporamide Suppresses Colorectal Tumor Progression as an NF-κB Pathway Inhibitor by Targeting the TAK1-TRAF6 Complex” (J Nat Prod, 2023).
The source made the active and inactive calls. The rule behind the calls is not given here.

What was measured:
[1] = Cmax in Sprague-Dawley rat at 10 mg/kg, iv measured for 5 mins by HPLC-MS/MS analysis; format: ADME, organism-based; parameters: time 5 min, dose 10 mg/kg, route iv; conditions: in vivo
HCT-116 [2] = assay: Cytotoxicity against human HCT-116 cells assessed as inhibition of cell growth incubated for 24 hrs by SRB assay; format: functional, cell-based; conditions: HCT-116, 24 h
SW480 = assay: Cytotoxicity against human SW480 cells assessed as decrease in cell viability incubated for 48 hrs by SRB assay; format: functional, cell-based; conditions: SW480, 48 h
HCT-116 [3] = assay: Induction of cell cycle arrest in human HCT-116 cells assessed as accumulation of cells at G2/M phase at 5 uM by RNase/PI staining based flow cytometry analysis (reference value: 23.15 %); format: functional
HT-29 [4] = assay: Induction of cell cycle arrest in human HT-29 cells assessed as accumulation of cells at G0/G1 phase at 1 uM by RNase/PI staining based flow cytometry analysis (reference value: 50.73 %); format: functional
HCT-116 [5] = assay: Induction of apoptosis in human HCT-116 cells assessed as viable cells at 0.25 uM incubated for 24 hrs by Annexin V-FITC/PI staining based flow cytometric analysis (reference value: 88.8%); format: functional; conditions: read-out: Activity
HCT-116 [6] = assay: Induction of cell cycle arrest in human HCT-116 cells assessed as decrease in Cdc2 protein expression upto 10 uM incubated for 24 hrs by Western blot analysis; format: functional, cell-based
HCT-116 [7] = assay: Induction of cell cycle arrest in human HCT-116 cells assessed as decrease in CDK2 protein expression upto 10 uM incubated for 24 hrs by Western blot analysis; format: functional, cell-based
HCT-116 [8] = assay: Induction of apoptosis in human HCT-116 cells assessed as early apoptotic cells at 10 uM incubated for 24 hrs by Annexin V-FITC/PI staining based flow cytometric analysis (reference value: 7.22 %); format: functional
HCT-116 [9] = assay: Induction of apoptosis in human HCT-116 cells assessed as necrotic cells at 0.25 uM incubated for 24 hrs by Annexin V-FITC/PI staining based flow cytometric analysis (reference value: 1.1 %); format: functional
HT-29 [10] = assay: Induction of apoptosis in human HT-29 cells assessed as viable cells at 0.5 uM incubated for 24 hrs by Annexin V-FITC/PI staining based flow cytometric analysis (reference value: 93 %); format: functional; conditions: read-out: Activity
HT-29 [11] = assay: Induction of apoptosis in human HT-29 cells assessed as late apoptotic cells at 0.25 uM incubated for 24 hrs by Annexin V-FITC/PI staining based flow cytometric analysis (reference value: 1.56 %); format: functional
HT-29 [12] = assay: Induction of apoptosis in human HT-29 cells assessed as viable cells at 5 uM incubated for 24 hrs by Annexin V-FITC/PI staining based flow cytometric analysis (reference value: 88.3 %); format: functional; conditions: read-out: Activity
[13] = target: T1, Nuclear factor NF-kappa-B complex (Homo sapiens) (UniProt Q00653+P19838+Q04206); assay: Inhibition of TNF-alpha induced NFkappaB activation in human HT-29 cells assessed as downregulation of A20 gene expression pretreated for 24 hrs followed by TNFalpha stimulation and measured after 2 hrs by quantitative RT-PCR analysis; format: cell-based; conditions: dose 1-10 µM, time 26.0 hrs
[14] = target: T1, Nuclear factor NF-kappa-B complex (Homo sapiens); assay: Inhibition of TNF-alpha induced NFkappaB activation in human HCT-116 cells assessed as downregulation of E-selectin gene expression pretreated for 24 hrs followed by TNFalpha stimulation and measured after 2 hrs by quantitative RT-PCR analysis; format: cell-based; conditions: dose 1-10 µM, time 26.0 hrs
[15] = target: T1, Nuclear factor NF-kappa-B complex (Homo sapiens); assay: Inhibition of TNF-alpha induced NFkappaB activation in human HCT-116 cells assessed as inhibition of IL-8 production at 2 uM pretreated for 24 hrs followed by TNFalpha stimulation for 4 hrs by ELISA; format: cell-based; conditions: time 28.0 hrs
[16] = target: T1, Nuclear factor NF-kappa-B complex (Homo sapiens); assay: Inhibition of TNF-alpha induced NFkappaB activation in human HT-29 cells assessed as inhibition of p65 nuclear translocation at 10 uM pretreated for 6 hrs followed by TNFalpha stimulation for 15 mins by immunohistochemical analysis; format: cell-based; conditions: time 6.25 hrs
Mus musculus [17] = assay: In vivo inhibition of NFkappaB activation in LPS-induced BALB/c mouse model of endotoxin shock assessed as reduction in IL6 level in serum at 5 mg/kg, ip pretreated for 4 hrs followed by LPS stimulation for 1 hr by ELISA; format: functional, organism-based; conditions: time 5.0 hrs
Mus musculus [18] = assay: In vivo inhibition of NFkappaB activation in athymic BALB/c mouse xenografted with human HT-29 cells assessed as reduction in MCP-1 gene expression in tumor at 5 to 15 mg/kg, ip administered every other day and measured after 14 days by qRT-PCR analysis; format: functional, organism-based; conditions: dose 5-15 mg/kg, time 14.0 day
HCT-116 [19] = assay: Antitumor activity against human HCT-116 cells xenografted in athymic nude BALB/c mouse assessed as induction of apoptosis by measuring increase in cleaved PARP expression in tumor at 15 mg/kg, ip administered every other day and measured after 14 days by immunohistochemistry analysis; format: functional, organism-based; conditions: time 14.0 day
HCT-116 [20] = assay: Antitumor activity against human HCT-116 cells xenografted in athymic nude BALB/c mouse assessed as induction of autophagy by measuring increase in LC3B expression in tumor at 15 mg/kg, ip administered every other day and measured after 14 days by immunohistochemistry analysis; format: functional, organism-based; conditions: time 14.0 day
[21] = Toxicity in athymic nude BALB/c mouse xenografted with human HCT-116 cells assessed as pathological changes in kidney at 5 to 15 mg/kg, ip administered every other day and measured after 14 days by hematoxylin and eosin staining-based microscopic analysis; format: organism-based; conditions: in vivo, 336 h, dose 5-15 mg/kg, time 14 day
[22] = Toxicity in athymic nude BALB/c mouse xenografted with human HT-29 cells assessed as pathological changes in spleen at 5 to 15 mg/kg, ip administered every other day and measured after 14 days by hematoxylin and eosin staining-based microscopic analysis; format: organism-based; conditions: in vivo, 336 h, dose 5-15 mg/kg, time 14 day
[23] = Plasma clearance in Sprague-Dawley rat at 10 mg/kg, ip measured for 24 hrs by HPLC-MS/MS analysis; format: ADME, organism-based
Mus musculus [24] = assay: Anti-inflammatory activity in AOM/DSS-induced BALB/c mouse model inflammatory bowel disease assessed as reduction in death rate at 5 to 10 mg/kg, ip pretreated with AOM for 7 days further replaced with DSS for 7 days and repeated for 2 times followed by every 2 days compound treatment for […] starting from day 50 and measured once a week; format: functional, organism-based; conditions: dose 5-10 mg/kg, time 21.0 day
HCT-116 [25] = assay: Induction of autophagic flux in human HCT-116 cells assessed as increase in LC3 protein expression preincubated with 3-methyladenine for 1 hr followed by compound addition and measured after 24 hrs by Western blot analysis; format: functional, cell-based
RKO = assay: Cytotoxicity against human RKO cells assessed as decrease in cell viability incubated for 48 hrs by SRB assay; format: functional, cell-based
HCT-116 [26] = assay: Cytotoxicity against human HCT-116 cells assessed as inhibition of cell growth by SRB assay; format: functional, cell-based; conditions: time 24-48 hrs, TDE = time-dependent effect
Mus musculus [27] = assay: Anti-inflammatory activity in AOM/DSS-induced BALB/c mouse model inflammatory bowel disease assessed as reduction in body weight at 5 to 10 mg/kg, ip pretreated with AOM for 7 days further replaced with DSS for 7 days and repeated for 2 times followed by every 2 days compound treatment for […] starting from day 50 […]; format: functional, organism-based; conditions: dose 5-10 mg/kg, time 21.0 day

T1 sequence (P19838 whole entry, looked up): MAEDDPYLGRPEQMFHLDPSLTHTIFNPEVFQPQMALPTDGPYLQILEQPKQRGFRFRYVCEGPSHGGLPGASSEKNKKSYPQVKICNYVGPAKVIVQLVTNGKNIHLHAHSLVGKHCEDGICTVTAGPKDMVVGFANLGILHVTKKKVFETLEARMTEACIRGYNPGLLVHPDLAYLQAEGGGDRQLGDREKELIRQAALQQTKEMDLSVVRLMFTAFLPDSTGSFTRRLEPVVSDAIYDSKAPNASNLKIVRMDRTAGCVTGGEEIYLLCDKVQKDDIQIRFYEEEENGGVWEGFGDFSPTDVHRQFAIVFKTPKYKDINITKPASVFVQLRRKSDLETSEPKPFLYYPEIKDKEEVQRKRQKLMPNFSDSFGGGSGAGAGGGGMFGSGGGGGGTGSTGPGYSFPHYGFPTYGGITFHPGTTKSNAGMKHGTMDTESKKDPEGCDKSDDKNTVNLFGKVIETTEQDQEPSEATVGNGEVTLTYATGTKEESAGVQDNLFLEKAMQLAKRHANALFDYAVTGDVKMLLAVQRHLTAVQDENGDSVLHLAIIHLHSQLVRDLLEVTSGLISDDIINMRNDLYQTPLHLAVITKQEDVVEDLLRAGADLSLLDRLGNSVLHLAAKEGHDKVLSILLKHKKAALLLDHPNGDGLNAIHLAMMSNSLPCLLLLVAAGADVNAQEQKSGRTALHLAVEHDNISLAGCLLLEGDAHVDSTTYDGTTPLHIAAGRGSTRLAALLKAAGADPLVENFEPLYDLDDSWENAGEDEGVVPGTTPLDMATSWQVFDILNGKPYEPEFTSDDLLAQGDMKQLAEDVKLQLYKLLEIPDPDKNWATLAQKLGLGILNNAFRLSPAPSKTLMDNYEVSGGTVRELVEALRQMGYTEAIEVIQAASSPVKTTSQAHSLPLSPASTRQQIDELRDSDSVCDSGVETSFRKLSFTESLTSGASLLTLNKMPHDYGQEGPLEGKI
T1 sequence (Q00653 whole entry, looked up): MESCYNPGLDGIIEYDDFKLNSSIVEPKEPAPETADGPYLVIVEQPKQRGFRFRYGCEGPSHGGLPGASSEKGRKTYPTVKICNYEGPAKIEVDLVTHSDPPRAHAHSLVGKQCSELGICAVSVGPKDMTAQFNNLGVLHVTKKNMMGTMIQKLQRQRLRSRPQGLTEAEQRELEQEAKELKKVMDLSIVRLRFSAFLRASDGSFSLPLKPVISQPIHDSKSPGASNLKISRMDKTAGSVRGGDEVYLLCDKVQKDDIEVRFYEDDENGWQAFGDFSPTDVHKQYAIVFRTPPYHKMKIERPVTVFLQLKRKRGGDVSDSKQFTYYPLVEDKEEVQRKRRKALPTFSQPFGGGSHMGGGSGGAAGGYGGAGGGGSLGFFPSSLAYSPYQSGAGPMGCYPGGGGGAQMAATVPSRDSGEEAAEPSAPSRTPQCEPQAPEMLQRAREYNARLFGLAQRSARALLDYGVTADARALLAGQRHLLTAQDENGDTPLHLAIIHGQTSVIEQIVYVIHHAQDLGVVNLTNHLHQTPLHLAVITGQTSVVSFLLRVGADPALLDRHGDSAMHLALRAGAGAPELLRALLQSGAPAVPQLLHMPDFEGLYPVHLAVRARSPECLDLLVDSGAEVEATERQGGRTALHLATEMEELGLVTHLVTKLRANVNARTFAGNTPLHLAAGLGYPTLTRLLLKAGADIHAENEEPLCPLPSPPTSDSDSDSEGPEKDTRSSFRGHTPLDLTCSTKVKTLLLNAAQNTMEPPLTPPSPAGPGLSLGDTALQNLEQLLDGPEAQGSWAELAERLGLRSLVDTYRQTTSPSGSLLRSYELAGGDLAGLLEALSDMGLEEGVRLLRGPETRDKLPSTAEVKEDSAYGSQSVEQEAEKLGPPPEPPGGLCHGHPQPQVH
T1 sequence (Q04206 whole entry, looked up): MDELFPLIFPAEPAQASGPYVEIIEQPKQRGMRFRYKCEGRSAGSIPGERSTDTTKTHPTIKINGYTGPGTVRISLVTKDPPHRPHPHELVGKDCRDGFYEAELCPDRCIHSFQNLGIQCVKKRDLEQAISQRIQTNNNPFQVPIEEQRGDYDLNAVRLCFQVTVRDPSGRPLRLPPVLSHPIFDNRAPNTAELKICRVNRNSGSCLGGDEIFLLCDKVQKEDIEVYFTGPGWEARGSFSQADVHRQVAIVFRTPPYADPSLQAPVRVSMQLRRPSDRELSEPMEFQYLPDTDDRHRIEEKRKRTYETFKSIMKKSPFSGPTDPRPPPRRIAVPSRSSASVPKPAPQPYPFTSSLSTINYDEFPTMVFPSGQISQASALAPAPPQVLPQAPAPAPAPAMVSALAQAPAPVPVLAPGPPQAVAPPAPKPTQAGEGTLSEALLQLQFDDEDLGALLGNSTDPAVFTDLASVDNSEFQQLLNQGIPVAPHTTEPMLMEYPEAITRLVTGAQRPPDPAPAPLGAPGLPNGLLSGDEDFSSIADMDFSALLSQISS

**Q.** With `C[C@@H]1CC[C@H]2[C@H](C(=O)c3c(O)c([C@@]4(O)CC[C@@H](O)[C@H]5O[C@H]54)cn(O)c3=O)[C@H](C)C=C[C@@H]2C1` as the molecule, how does the Cmax [1] read?
**A.** 13200 ng/mL

**Q.** What about the IC50 (HCT-116 [2]) of the same molecule?
**A.** 2800 nM

**Q.** What about the IC50 (SW480) of the same molecule?
**A.** 570 nM

**Q.** And the Activity (HCT-116 [3])?
**A.** 15.66%

**Q.** What about the Activity (HT-29 [4]) of the same molecule?
**A.** 69.17%

**Q.** What about the viability at 0.25 µM (HCT-116 [5]) of the same molecule?
**A.** 59.9%

**Q.** What about the Activity (HCT-116 [6]) of the same molecule?
**A.** Active

**Q.** And the Activity (HCT-116 [7])?
**A.** Active

**Q.** And the Activity (HCT-116 [8])?
**A.** 12.3%

**Q.** And the Activity (HCT-116 [9])?
**A.** 3.14%

**Q.** And the viability at 0.5 µM (HT-29 [10])?
**A.** 55.5%

**Q.** And the Activity (HT-29 [11])?
**A.** 1.4%

**Q.** What about the viability at 5 µM (HT-29 [12]) of the same molecule?
**A.** 49.5%

**Q.** What about the inhibition [13] of the same molecule?
**A.** Dose-Dependent Effect

**Q.** And the inhibition [14]?
**A.** Dose-Dependent Effect

**Q.** And the inhibition [15]?
**A.** Active

**Q.** What about the inhibition [16] of the same molecule?
**A.** Active

**Q.** What about the inhibition (Mus musculus [17]) of the same molecule?
**A.** Active

**Q.** What about the inhibition (Mus musculus [18]) of the same molecule?
**A.** Active

**Q.** What about the Activity (HCT-116 [19]) of the same molecule?
**A.** Active

**Q.** What about the Activity (HCT-116 [20]) of the same molecule?
**A.** Active

**Q.** And the Activity [21]?
**A.** Non-Toxic

**Q.** And the Activity [22]?
**A.** Non-Toxic

**Q.** What about the CL/F [23] of the same molecule?
**A.** 27 mL/min/kg

**Q.** What about the Activity (Mus musculus [24]) of the same molecule?
**A.** Active

**Q.** And the Activity (HCT-116 [25])?
**A.** Active

**Q.** What about the IC50 (RKO) of the same molecule?
**A.** 570 nM

**Q.** And the Activity (HCT-116 [26])?
**A.** Tde

**Q.** What about the Activity (Mus musculus [27]) of the same molecule?
**A.** Active
